In this assay the target is OfChtI-CAD (Ostrinia furnacalis, UniProt Q2V6H4, E148Q). In words: isothermal titration calorimetry, single-site model. It counts as binding. The following applies: 50 mM HEPES pH 8.0, 303 K. The text has this: isothermal titration calorimetry, single-site model on OfChtI-CAD
Sequence of OfChtI-CAD (Q2V6H4 19-407, stated change not applied): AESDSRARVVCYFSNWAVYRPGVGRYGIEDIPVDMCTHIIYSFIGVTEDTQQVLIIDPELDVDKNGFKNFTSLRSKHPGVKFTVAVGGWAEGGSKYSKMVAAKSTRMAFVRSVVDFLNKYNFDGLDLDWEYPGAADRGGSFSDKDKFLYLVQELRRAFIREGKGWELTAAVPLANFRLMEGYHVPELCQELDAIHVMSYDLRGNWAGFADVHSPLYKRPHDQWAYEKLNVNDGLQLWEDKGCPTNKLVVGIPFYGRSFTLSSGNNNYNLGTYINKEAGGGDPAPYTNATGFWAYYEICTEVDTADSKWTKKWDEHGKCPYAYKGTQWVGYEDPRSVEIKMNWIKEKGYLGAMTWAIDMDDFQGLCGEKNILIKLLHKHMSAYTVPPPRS
`CC(=O)N[C@H]1[C@H](O[C@H]2[C@H](O)[C@@H](NC(C)=O)[C@H](O[C@H]3[C@H](O)[C@@H](NC(C)=O)C(O)O[C@@H]3CO)O[C@@H]2CO)O[C@H](CO)[C@@H](O[C@@H]2O[C@H](CO)[C@@H](O[C@@H]3O[C@H](CO)[C@@H](O)[C@H](O)[C@H]3NC(C)=O)[C@H](O)[C@H]2NC(C)=O)[C@@H]1O` (stereo partly drawn) [(GlcNAc)5] came in with a Kd of 2 ± 0.2 µM.

Compound `CC(=O)N[C@H]1[C@H](O[C@H]2[C@H](O)[C@@H](NC(C)=O)C(O)O[C@@H]2CO)O[C@H](CO)[C@@H](O[C@@H]2O[C@H](CO)[C@@H](O[C@@H]3O[C@H](CO)[C@@H](O)[C@H](O)[C@H]3NC(C)=O)[C@H](O)[C@H]2NC(C)=O)[C@@H]1O` (stereo partly drawn) [(GlcNAc)4] returned a Kd of 11.3 ± 1.5 µM.

Consider `CC(=O)N[C@H]1[C@H](O[C@H]2[C@H](O)[C@@H](NC(C)=O)[C@H](O[C@H]3[C@H](O)[C@@H](NC(C)=O)C(O)O[C@@H]3CO)O[C@@H]2CO)O[C@H](CO)[C@@H](O[C@@H]2O[C@H](CO)[C@@H](O[C@@H]3O[C@H](CO)[C@@H](O[C@@H]4O[C@H](CO)[C@@H](O)[C@H](O)[C@H]4NC(C)=O)[C@H](O)[C@H]3NC(C)=O)[C@H](O)[C@H]2NC(C)=O)[C@@H]1O` (stereo partly drawn) [(GlcNAc)6, N′,N′′,N′′′,N′′′′,N′′′′′, N′′′′′′-hexaacetylchitohexaose], for which the Kd was found to be 0.48 ± 0.09 µM.

These data come from publication PMC3975886, “Structural characteristics of an insect group I chitinase, an enzyme indispensable to moulting” (Acta Crystallographica Section D: Biological Crystallography, 2014).
